Data as given in patent publication US12134610B2, “Somatostatin subtype-2 receptor (SST2R) targeted therapeutics and uses thereof” (priority 2022, dated 2024).

Each compound was assayed against T1, human somatostatin receptor subtype 2 (Homo sapiens, UniProt P30874) (assay: Functional cAMP assay for SSTR2 agonists (HTRF) in CHO-K1 cells). Details: CHO-K1 cells stably expressing human SST2, 20 min; read-out: hSST2 cAMP Avg EC50.
T1 construct: expressed in transfected cells
Assay type: cell-based
Source text: General overview: All five SSTR subtypes are Gi coupled G-protein coupled receptors (GPCRs) that lead to decreases in intracellular cyclic AMP (cAMP) when activated by an agonist. Therefore, measurement of intracellular cAMP levels can be used to assess whether compounds of the invention are agonists of SSTR subtypes (John Kelly, Troy Stevens, W. Joseph Thompson, and Roland Seifert, Current Protocols in Pharmacology, 2005, 2.2.1-2.2). One example of an intracellular cAMP assay is described below.
Functional Assay for SSTR2 Agonists
Four days prior to the assay, 2,000 Chinese hamster ovary cells (CHO-K1, ATCC #CCL-61) stably expressing the human somatostatin receptor subtype 2 are plated in each well of a 96-well tissue culture-treated plate in Ham's F12 growth media (ThermoFisher #10-080-CM) supplemented with 10% donor bovine serum (Gemini Bio-Products #100-506), 100 U/mL penicillin; 100 ug/mL streptomycin; 2 mM L-glutamine (Gemini Bio-Products #400-110) and 0.2 mg/mL hygromycin B (GoldBio #31282-04-9). The cells are cultured at 37° C., 5% CO2 and 95% humidity. cAMP is measured with HTRF dynamic cAMP assay (Cisbio, #62AM5PEJ) per manufacturer's instructions. On the day of the assay, the media is aspirated and the cells are treated with 50 μL of stimulation buffer supplemented with 10.2 mM 3-Isobutyl-1-methylxanthine (IBMX, Millipore Sigma #15879) and 1.6 μM NKH477 (Tocris #1603), plus various dilutions of SMDCs of the present invention. The cells are incubated for 20 minutes at 37° C. (the final concentration of the compounds of the invention are typically 0-10,000 nM). The cells are treated with 50 μL of lysis buffer (HRTF cAMP kit, Cisbio) and incubated at room temperature for 30 minutes with rotary shaking at 600 rpm, and then diluted with 150 μL of stimulation buffer and shaken for an additional five minutes at 300 rpm. The lysate is transferred to 384-well plates and incubated for 1-24 hours at room temperature, and cAMP accumulation is detected by d2-labeled cAMP and Anti-cAMP-Cryptate. The time-resolved fluorescent signal is read using a m1000 Pro (Tecan) or CLARIOStar (BMG Labtech) microplate reader, where the samples are excited with light at 340 nm and emission light is measured at 620 nm and 665 nm. The data is expressed as a calculation of the fluorescence ratio (665 nm/620 nm). The intracellular cAMP concentrations are calculated by regression to a standard curve and are plotted vs. the concentration of the compounds of the invention. The EC50 of the compounds are calculated using standard methods. All data manipulations are in GraphPad Prism v9 (GraphPad, San Diego, CA).

T1 sequence (P30874 whole entry): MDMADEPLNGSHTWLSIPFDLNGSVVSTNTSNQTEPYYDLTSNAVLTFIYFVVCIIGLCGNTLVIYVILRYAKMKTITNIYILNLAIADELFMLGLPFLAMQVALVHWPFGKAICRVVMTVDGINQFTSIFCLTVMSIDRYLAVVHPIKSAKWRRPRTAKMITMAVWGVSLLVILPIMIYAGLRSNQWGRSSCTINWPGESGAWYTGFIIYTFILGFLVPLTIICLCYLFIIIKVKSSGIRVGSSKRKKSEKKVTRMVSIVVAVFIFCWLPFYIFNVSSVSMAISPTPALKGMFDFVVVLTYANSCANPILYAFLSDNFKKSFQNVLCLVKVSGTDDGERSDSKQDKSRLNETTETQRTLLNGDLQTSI

Structure (SMILES)	EC50
Cc1cc(F)cc(-c2cnc(NCCNC(=O)CCOCCOCCOCCOCCOCCNC(=O)CN3CCN(CC(=O)O)CCN(CC(=O)O)CCN(CC(=O)O)CC3)c(-c3nc4cc(Cl)ccc4[nH]3)c2N2CCC(N)CC2)c1 [Comp. 1, 2-{7-[({17-[(2-{[4-(4-aminopiperidin-1-yl)-3-(5-chloro-1H-1,3-benzodiazol-2-yl)-5-(3-fluoro-5-methylphenyl)pyridin-2-yl]amino}ethyl)carbamoyl]-3,6,9,12,15-pentaoxaheptadecan-1-yl}carbamoyl)methyl}-4,10-bis(carboxymethyl)-1,4,7,10-tetraazacyclododecan-1-yl}acetic acid, reference compound]	0.075 nM
Cc1cc(F)cc(-c2cnc(NCCOC(=O)NCCOCCOCCOCCOCCOCCNC(=O)CN3CCN(CC(=O)O)CCN(CC(=O)O)CCN(CC(=O)O)CC3)c(-c3nc4cc(Cl)ccc4[nH]3)c2N2CCC(N)CC2)c1 [Comp. 2, 2-(7-{[(17-{[(2-{[4-(4-aminopiperidin-1-yl)-3-(5-chloro-1H-1,3-benzodiazol-2-yl)-5-(3-fluoro-5-methylphenyl)pyridin-2-yl]amino}ethoxy)carbonyl]amino}-3,6,9,12,15-pentaoxaheptadecan-1-yl)carbamoyl]methyl}-4,10-bis(carboxymethyl)-1,4,7,10-tetraazacyclododecan-1-yl)acetic acid, reference compound]	0.17 nM
Cc1cc(F)cc(-c2cnc(NCCCNC(=O)CCOCCOCCOCCOCCOCCNC(=O)CN3CCN(CC(=O)O)CCN(CC(=O)O)CCN(CC(=O)O)CC3)c(-c3nc4cc(Cl)ccc4[nH]3)c2N2CCC(N)CC2)c1 [Compound 3, 2-{7-[{{17-[(3-{[4-(4-aminopiperidin-1-yl)-3-(5-chloro-1H-1,3-benzodiazol-2-yl)-5-(3-fluoro-5-methylphenyl)pyridin-2-yl]amino}propyl)carbamoyl]-3,6,9,12,15-pentaoxaheptadecan-1-yl}carbamoyl)methyl]-4,10-bis(carboxymethyl)-1,4,7,10-tetraazacyclododecan-1-yl}acetic acid]	0.14 nM
Cc1cc(F)cc(-c2cnc(NC3CCN(C(=O)CCOCCOCCOCCOCCOCCOCCNC(=O)CN4CCN(CC(=O)O)CCN(CC(=O)O)CCN(CC(=O)O)CC4)CC3)c(-c3nc4cc(Cl)ccc4[nH]3)c2N2CCC(N)CC2)c1 [Compound 4, 2-[7-({[21-(4-{[4-(4-aminopiperidin-1-yl)-3-(5-chloro-1H-1,3-benzodiazol-2-yl)-5-(3-fluoro-5-methylphenyl)pyridin-2-yl]amino}piperidin-1-yl)-21-oxo-3,6,9,12,15,18-hexaoxahenicosan-1-yl]carbamoyl}methyl)-4,10-bis(carboxymethyl)-1,4,7,10-tetraazacyclododecan-1-yl]acetic acid]	0.2 nM
Cc1cc(F)cc(-c2cnc(NCCOCCOCCOCCOCCNC(=O)CN3CCN(CC(=O)O)CCN(CC(=O)O)CCN(CC(=O)O)CC3)c(-c3ccc(C(F)(F)F)cc3)c2N2CCC(N)CC2)c1 [Compound 5, 2-(4-{[(14-{[4-(4-aminopiperidin-1-yl)-5-(3-fluoro-5-methylphenyl)-3-[4-(trifluoromethyl)phenyl]pyridin-2-yl]amino}-3,6,9,12-tetraoxatetradecan-1-yl)carbamoyl]methyl}-7,10-bis(carboxymethyl)-1,4,7,10-tetraazacyclododecan-1-yl)acetic acid]	0.66 nM
COCCOCCOCCOCCOCCC(=O)NCCNc1ncc(-c2cc(C)cc(F)c2)c(N2CCC(N)CC2)c1-c1nc2ccc(Cl)cc2[nH]1 [Compound 14, N-(2-{[4-(4-aminopiperidin-1-yl)-3-(6-chloro-1H-1,3-benzodiazol-2-yl)-5-(3-fluoro-5-methylphenyl)pyridin-2-yl]amino}ethyl)-2,5,8,11,14-pentaoxaheptadecan-17-amide]	0.048 nM
Cc1cc(F)cc(-c2cnc(NCCNC(=O)CCOCCOCCOCCOCCOCCNC(=O)CN3CCN4CCN5CCN(CC3)CC(=O)[O][In]([O]C(=O)C4)[O]C(=O)C5)c(-c3nc4cc(Cl)ccc4[nH]3)c2N2CCC(N)CC2)c1 [Compound 15, N-(2-{[4-(4-aminopiperidin-1-yl)-3-(5-chloro-1H-1,3-benzodiazol-2-yl)-5-(3-fluoro-5-methylphenyl)pyridin-2-yl]amino}ethyl)-1-(2-{3,16,19-trioxo-2,17,18-trioxa-5,8,11,14-tetraaza-1-indatricyclo[9.6.3.2^5,14]docosan-8-yl}acetamido)-3,6,9,12,15-pentaoxaoctadecan-18-amide]	0.057 nM
Cc1cc(F)cc(-c2cnc(NCCCNC(=O)CCOCCOCCOCCOCCOCCNC(=O)CN3CCN4CCN5CCN(CC3)CC(=O)[O][In]([O]C(=O)C4)[O]C(=O)C5)c(-c3nc4cc(Cl)ccc4[nH]3)c2N2CCC(N)CC2)c1 [Compound 16, N-(3-{[4-(4-aminopiperidin-1-yl)-3-(5-chloro-1H-1,3-benzodiazol-2-yl)-5-(3-fluoro-5-methylphenyl)pyridin-2-yl]amino}propyl)-1-(2-{3,16,19-trioxo-2,17,18-trioxa-5,8,11,14-tetraaza-1-indatricyclo[9.6.3.2^5,^14]docosan-8-yl}acetamido)-3,6,9,12,15-pentaoxaoctadecan-18-amide]	0.11 nM
Cc1cc(F)cc(-c2cnc(NC3CCN(C(=O)CCOCCOCCOCCOCCOCCOCCNC(=O)CN4CCN5CCN6CCN(CC4)CC(=O)[O][In]([O]C(=O)C5)[O]C(=O)C6)CC3)c(-c3nc4cc(Cl)ccc4[nH]3)c2N2CCC(N)CC2)c1 [Compound 17, N-[21-(4-{[4-(4-aminopiperidin-1-yl)-3-(5-chloro-1H-1,3-benzodiazol-2-yl)-5-(3-fluoro-5-methylphenyl)pyridin-2-yl]amino}piperidin-1-yl)-21-oxo-3,6,9,12,15,18-hexaoxahenicosan-1-yl]-2-{3,16,19-trioxo-2,17,18-trioxa-5,8,11,14-tetraaza-1-indatricyclo[9.6.3.2^5,^14]docosan-8-yl}acetamide]	0.1 nM
Cc1cc(F)cc(-c2cnc(NCCOCCOCCOCCOCCNC(=O)CN3CCN4CCN5CCN(CC3)CC(=O)[O][In]([O]C(=O)C4)[O]C(=O)C5)c(-c3ccc(C(F)(F)F)cc3)c2N2CCC(N)CC2)c1 [Compound 18, N-(14-{[4-(4-aminopiperidin-1-yl)-5-(3-fluoro-5-methylphenyl)-3-[4-(trifluoromethyl)phenyl]pyridin-2-yl]amino}-3,6,9,12-tetraoxatetradecan-1-yl)-2-{3,16,19-trioxo-2,17,18-trioxa-5,8,11,14-tetraaza-1-indatricyclo[9.6.3.2^5,^14]docosan-8-yl}acetamide]	1.8 nM

Same assay, conditions: hSST2 cAMP Avg EC50 (nM), CHO-K1 cells stably expressing human SST2, 20 min

Structure (SMILES)	EC50
CC[C@@]1(O)C(=O)OCc2c1cc1n(c2=O)Cc2c-1nc1cc(F)c(C)c3c1c2[C@@H](NC(=O)OCc1ccc(NC(=O)[C@H](CCCNC(N)=O)NC(=O)[C@@H](NC(=O)CCOCCC(=O)NCCNc2ncc(-c4cc(C)cc(F)c4)c(N4CCC(N)CC4)c2-c2nc4ccc(Cl)cc4[nH]2)C(C)C)c(O[C@@H]2O[C@H](C(=O)O)[C@@H](O)[C@H](O)[C@H]2O)c1)CC3 [Compound 73]	0.49 nM
CC[C@@]1(O)C(=O)OCc2c1cc1n(c2=O)Cc2c-1nc1cc(F)c(C)c3c1c2[C@@H](NC(=O)OCc1ccc(NC(=O)[C@H](CCCNC(N)=O)NC(=O)[C@@H](NC(=O)CCOCCOCCOCCOCCC(=O)NCCNc2ncc(-c4cc(C)cc(F)c4)c(N4CCC(N)CC4)c2-c2nc4ccc(Cl)cc4[nH]2)C(C)C)c(O[C@@H]2O[C@H](C(=O)O)[C@@H](O)[C@H](O)[C@H]2O)c1)CC3 [Compound 74]	0.31 nM
